Legend:
[1] = target: T1, Human immunodeficiency virus type 1 integrase (Human immunodeficiency virus 1, UniProt Q7ZJM1); assay: Inhibition of HIV1 integrase 3' strand transfer activity
[2] = tested on: Human immunodeficiency virus 1; assay: Antiviral activity against HIV1 Rf infected in CEM cells assessed as inhibition of viral replication after 5 days; type: functional, organism-based; settings: Human immunodeficiency virus 1, Rf, CCRF-CEM, 120 h
[3] = target: T1, Human immunodeficiency virus type 1 integrase; assay: Inhibition of HIV1 integrase 3' processing activity
CCRF-CEM = assay: Cytotoxicity against human CEM cells; type: functional
[4] = Half life in rat at 5 mg/kg, po; type: ADME, organism-based; parameters: dose 5 mg/kg, route oral; settings: in vivo
Rattus norvegicus = assay: Volume of distribution at steady state in rat at 5 mg/kg, po and 2 mg/kg, iv; settings: in vivo
[5] = Tmax in rat at 5 mg/kg, po and 2 mg/kg, iv; settings: in vivo
[6] = Cmax in rat at 2 mg/kg, iv; settings: in vivo
[7] = Cmax in rat at 5 mg/kg, po; type: ADME, organism-based; parameters: dose 5 mg/kg, route oral; settings: in vivo
[8] = Plasma clearance in rat at 5 mg/kg, po and 2 mg/kg, iv
[9] = Oral bioavailability in rat at 5 mg/kg; type: ADME, organism-based; settings: in vivo
[10] = Half life in rat at 2 mg/kg, iv; settings: in vivo

T1 sequence (Q7ZJM1 whole entry): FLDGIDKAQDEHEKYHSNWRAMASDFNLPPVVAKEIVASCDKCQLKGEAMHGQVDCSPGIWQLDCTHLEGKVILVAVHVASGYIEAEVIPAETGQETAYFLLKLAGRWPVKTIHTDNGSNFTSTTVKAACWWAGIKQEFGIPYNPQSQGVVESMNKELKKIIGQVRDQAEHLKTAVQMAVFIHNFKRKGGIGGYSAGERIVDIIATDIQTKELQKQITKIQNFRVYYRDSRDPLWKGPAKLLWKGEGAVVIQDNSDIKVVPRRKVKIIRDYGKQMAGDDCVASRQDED

Compound	IC50 [1]	EC50 [2]	IC50 [3]	CC50 (CCRF-CEM)	also measured
COc1ccc2c(c1)C(=O)C(O)=C(C1=C(C3=C(O)C(=O)c4cc(OC)ccc4C3=O)C(=O)c3ccccc3C1=O)C2=O	10 µM	> 20 µM	22.5 µM	–	–
CC1(C)CCc2c(ccc3c2C(=O)C(O)=C(C2=C(C4=C(O)C(=O)c5c(ccc6c5CCC(C)(C)O6)C4=O)C(=O)c4c(ccc5c4CCC(C)(C)O5)C2=O)C3=O)O1	9 µM	–	–	–	–
CC1(C)C=Cc2c(ccc3c2C(=O)C(O)=C(C2=C(C4=C(O)C(=O)c5c(ccc6c5C=CC(C)(C)O6)C4=O)C(=O)N(Cc4ccccc4)C2=O)C3=O)O1	4 µM	> 20 µM	4.5 µM	–	–
CCCOc1ccc2c(c1)C(=O)C(C1=C(O)C(=O)c3c(ccc4c3C=CC(C)(C)O4)C1=O)=C(C1=C(O)C(=O)c3c(ccc4c3C=CC(C)(C)O4)C1=O)C2=O	5 µM	0.009 µM	2.8 µM	1 µM	–
O=C1C(O)=C(C2=C(C3=C(O)C(=O)c4ccccc4C3=O)C(=O)c3ccccc3C2=O)C(=O)c2ccccc21	13 µM	16 µM	56 µM	48 µM	–
COc1cc2c(cc1OC)C(=O)C(C1=C(C3=C(O)C(=O)c4cc(OC)c(OC)cc4C3=O)C(=O)c3cc(OC)c(OC)cc3C1=O)=C(O)C2=O	10 µM	–	> 150 µM	–	–
COc1cc2c(cc1OC)C(=O)C(C1=C(C3=C(O)C(=O)c4cc(OC)c(OC)cc4C3=O)C(=O)c3ccccc3C1=O)=C(O)C2=O	12 µM	> 20 µM	62 µM	–	–
CC1(C)C=Cc2c(ccc3c2C(=O)C(O)=C(C2=C(C4=C(O)C(=O)c5c(ccc6c5C=CC(C)(C)O6)C4=O)C(=O)c4c(ccc5c4C=CC(C)(C)O5)C2=O)C3=O)O1	3 µM	0.39 µM	1.7 µM	> 20 µM	–
COc1ccc2c(c1)C(=O)C(C1=C(O)C(=O)c3c(ccc4c3C=CC(C)(C)O4)C1=O)=C(C1=C(O)C(=O)c3c(ccc4c3C=CC(C)(C)O4)C1=O)C2=O	2.5 µM	0.027 µM	2.3 µM	10 µM	–
CC1(C)C=Cc2c(ccc3c2C(=O)C(O)=C(C2=C(C4=C(O)C(=O)c5c(ccc6c5C=CC(C)(C)O6)C4=O)C(=O)c4c(ccc5c4CCC(C)(C)O5)C2=O)C3=O)O1	6 µM	0.47 µM	1.8 µM	> 20 µM	half-life [4]: 21.7 h; Vdss (Rattus norvegicus): 27.7 mL; Tmax [5]: 7.5 h; Cmax [6]: 50200 ng/mL; Cmax [7]: 3200 ng/mL; clearance [8]: 0.00733 mL/min; bioavailability [9]: 2.6%; half-life [10]: 45 h
COc1cccc2c1C(=O)C(C1=C(C3=C(O)C(=O)c4cccc(OC)c4C3=O)C(=O)c3ccccc3C1=O)=C(O)C2=O	13 µM	> 20 µM	–	–	–
CC(C)Oc1ccc2c(c1)C(=O)C(C1=C(O)C(=O)c3c(ccc4c3C=CC(C)(C)O4)C1=O)=C(C1=C(O)C(=O)c3c(ccc4c3C=CC(C)(C)O4)C1=O)C2=O	> 100 µM	0.24 µM	3 µM	> 20 µM	–
CC1(C)C=Cc2c(ccc3c2C(=O)C(O)=C(C2=C(C4=C(O)C(=O)c5c(ccc6c5C=CC(C)(C)O6)C4=O)C(=O)c4ccccc4C2=O)C3=O)O1	2 µM	0.029 µM	2.5 µM	10 µM	–

Reference: ChEMBL document CHEMBL1221315, “Antiviral agents 2. Synthesis of trimeric naphthoquinone analogues of conocurvone and their antiviral evaluation against HIV” (Bioorg Med Chem, 2010)
